Reference: ChEMBL document CHEMBL5500346, “Targeting EGFR degradation by autophagosome degraders” (Eur J Med Chem, 2024)
Calls of active or inactive are those of the source. Unless noted, no cut-off for these calls is given here.

Key:
A549 = experiment: Antiproliferative activity against human A549 cells incubated for 72 hrs by CCK8 assay; assay type: functional, cell-based; settings: A549, 72 h
HCC827 [1] = experiment: Antiproliferative activity against human HCC827 cells incubated for 72 hrs by CCK8 assay; assay type: functional, cell-based; settings: HCC827, 72 h
PC-9 [2] = experiment: Antiproliferative activity against human PC-9 cells incubated for 72 hrs by CCK8 assay; assay type: functional, cell-based; settings: PC-9, 72 h
NCI-H3255 = experiment: Antiproliferative activity against human NCI-H3255 cells incubated for 72 hrs by CCK8 assay; assay type: functional, cell-based; settings: NCI-H3255, 72 h
NCI-H1975 = experiment: Antiproliferative activity against human NCI-H1975 cells incubated for 72 hrs by CCK8 assay; assay type: functional, cell-based; settings: NCI-H1975, 72 h
L02 = experiment: Antiproliferative activity against human HL7702 cells incubated for 72 hrs by CCK8 assay; assay type: toxicity, cell-based; settings: l02, 72 h
[3] = target: T1, Microtubule-associated protein 1 light chain 3 beta/Epidermal growth factor receptor (Homo sapiens, UniProt P00533+Q9GZQ8); experiment: ATTEC activity at LC3B/EGFR in human NCI-H1975 cells assessed as protein degradation; assay type: cell-based
[4] = target: T1, Microtubule-associated protein 1 light chain 3 beta/Epidermal growth factor receptor; experiment: ATTEC activity at LC3B/EGFR in human PC-9 cells assessed as protein degradation; assay type: cell-based
[5] = target: T1, Microtubule-associated protein 1 light chain 3 beta/Epidermal growth factor receptor; experiment: ATTEC activity at LC3B/EGFR in human NCI-H3255 cells assessed as protein degradation; assay type: cell-based
[6] = target: T1, Microtubule-associated protein 1 light chain 3 beta/Epidermal growth factor receptor; experiment: ATTEC activity at LC3B/EGFR in Gefitinib-resistant human PC-9 cells assessed as protein degradation; assay type: cell-based
[7] = target: T1, Microtubule-associated protein 1 light chain 3 beta/Epidermal growth factor receptor; experiment: ATTEC activity at LC3B/EGFR in human HCC827 cells assessed as protein degradation at 1 uM measured after 48 hrs by Western blot analysis; assay type: cell-based
[8] = target: T1, Microtubule-associated protein 1 light chain 3 beta/Epidermal growth factor receptor; experiment: ATTEC activity at LC3B/EGFR in CHX-treated human HCC827 cells assessed as protein degradation at 1 uM incubated for 12 hrs by Western blot analysis; assay type: cell-based
[9] = target: T1, Microtubule-associated protein 1 light chain 3 beta/Epidermal growth factor receptor; experiment: ATTEC activity at LC3B/EGFR in MG132-treated human HCC827 cells assessed as protein degradation at 1 uM incubated for 12 hrs by Western blot analysis; assay type: cell-based
[10] = target: T1, Microtubule-associated protein 1 light chain 3 beta/Epidermal growth factor receptor; experiment: ATTEC activity at LC3B/EGFR in MLN4924-treated human HCC827 cells assessed as protein degradation at 1 uM incubated for 12 hrs by Western blot analysis; assay type: cell-based
[11] = target: T1, Microtubule-associated protein 1 light chain 3 beta/Epidermal growth factor receptor; experiment: ATTEC activity at LC3B/EGFR in Baf-treated human HCC827 cells assessed as protein degradation at 1 uM incubated for 16 hrs by Western blot analysis; assay type: cell-based
[12] = target: T1, Microtubule-associated protein 1 light chain 3 beta/Epidermal growth factor receptor; experiment: ATTEC activity at LC3B/EGFR in chloroquine-treated human HCC827 cells assessed as protein degradation at 1 uM incubated for 16 hrs by Western blot analysis; assay type: cell-based
[13] = target: T1, Microtubule-associated protein 1 light chain 3 beta/Epidermal growth factor receptor; experiment: ATTEC activity at LC3B/EGFR in EBSS-treated human HCC827 cells assessed as protein degradation by Western blot analysis; assay type: cell-based
[14] = target: T1, Microtubule-associated protein 1 light chain 3 beta/Epidermal growth factor receptor; experiment: ATTEC activity at LC3B/EGFR in human HCC827 cells assessed as protein degradation at 1 uM incubated for 18 hrs by global proteomic profiling analysis; assay type: cell-based
[15] = target: T1, Microtubule-associated protein 1 light chain 3 beta/Epidermal growth factor receptor; experiment: ATTEC activity at LC3B/EGFR in human HCC827 cells assessed as increase in density of lysosomes incubated for 4 hrs by LysoTracker Red staining based analysis; assay type: cell-based
PC-9 [16] = experiment: Inhibition of colony formation in human PC-9 cells incubated for 2 weeks by crystal violet staining based analysis; assay type: functional, cell-based; settings: dose 0.1-10 µM
HCC827 [17] = experiment: Inhibition of colony formation in human HCC827 cells incubated for 2 weeks by crystal violet staining based analysis; assay type: functional, cell-based; settings: dose 0.1-10 µM
[18] = Stability in mouse plasma at 1 mg/ml incubated for 160 mins by HPLC analysis; assay type: ADME, cell-free; settings: read-out: Stability
[19] = Half life in Sprague-Dawley rat at 20 mg/kg, po; assay type: ADME, organism-based; settings: in vivo
[20] = Toxicity in NOD-SCID mouse bearing human PC-9 cells assessed as body weight loss at 5 to 20 mg/kg, ip administered every other day for 3 weeks; assay type: organism-based; settings: in vivo, 504 h, dose 5-20 mg/kg
PC-9 [21] = experiment: Anti-tumor activity against human PC-9 cells implanted in NOD-SCID mouse at 10 mg/kg, ip administered every other day for 3 weeks relative to control; assay type: functional; settings: PC-9, 504 h, read-out: TGI
[22] = Toxicity in C57BL/6 mouse assessed as body weight loss upto 200 mg/kg, ip measured after 24 hrs; assay type: organism-based; settings: in vivo
[23] = Toxicity in C57BL/6 mouse assessed as tremor upto 200 mg/kg, ip measured after 24 hrs; assay type: organism-based; settings: in vivo
[24] = Toxicity in C57BL/6 mouse assessed as ataxia upto 200 mg/kg, ip measured after 24 hrs; assay type: organism-based; settings: in vivo
[25] = Toxicity in C57BL/6 mouse assessed as histological change in heart upto 200 mg/kg, ip measured after 24 hrs by H and E staining based analysis; assay type: organism-based; settings: in vivo
[26] = Toxicity in C57BL/6 mouse assessed as serum ALT level at 100 mg/kg, ip measured after 24 hrs (reference value: 42.554 U/L); assay type: organism-based; settings: in vivo
[27] = Toxicity in C57BL/6 mouse assessed as serum AST level at 100 mg/kg, ip measured after 24 hrs (reference value: 234.682 U/L); assay type: organism-based; settings: in vivo
[28] = Toxicity in C57BL/6 mouse assessed as serum GGT level at 100 mg/kg, ip measured after 24 hrs (reference value: 1.62 U/L); assay type: organism-based; settings: in vivo
[29] = Toxicity in C57BL/6 mouse assessed as serum TBIL level at 100 mg/kg, ip measured after 24 hrs (reference value: 18.958 umol/L); assay type: organism-based; settings: in vivo
[30] = Toxicity in C57BL/6 mouse assessed as serum DBIL level at 100 mg/kg, ip measured after 24 hrs (reference value: 7.868 umol/L); assay type: organism-based; settings: in vivo
[31] = Toxicity in C57BL/6 mouse assessed as serum ALP level at 100 mg/kg, ip measured after 24 hrs (reference value: 250.654 U/L); assay type: organism-based; settings: in vivo
[32] = Toxicity in C57BL/6 mouse assessed as serum TBA level at 100 mg/kg, ip measured after 24 hrs (reference value: 2.674 umol/L); assay type: organism-based; settings: in vivo
[33] = Toxicity in C57BL/6 mouse assessed as serum urea level at 100 mg/kg, ip measured after 24 hrs (reference value: 18.934 mmol/L); assay type: organism-based; settings: in vivo
[34] = Toxicity in C57BL/6 mouse assessed as serum uric acid level at 100 mg/kg, ip measured after 24 hrs (reference value: 78.784 umol/L); assay type: organism-based; settings: in vivo
[35] = Toxicity in C57BL/6 mouse assessed as serum TBIL level at 200 mg/kg, ip measured after 24 hrs (reference value: 18.958 umol/L); assay type: organism-based; settings: in vivo
[36] = Toxicity in C57BL/6 mouse assessed as serum TBA level at 200 mg/kg, ip measured after 24 hrs (reference value: 2.674 umol/L); assay type: organism-based; settings: in vivo
[37] = Toxicity in C57BL/6 mouse assessed as serum urea level at 200 mg/kg, ip measured after 24 hrs (reference value: 18.934 mmol/L); assay type: organism-based; settings: in vivo

COc1cc2ncnc(Nc3ccc(F)c(Cl)c3)c2cc1OCCOCCOCCOCCNC(=O)COc1c(Br)cc(/C=C2\C(=O)Nc3ccc(I)cc32)cc1Br
IC50 (A549): > 10 µM
IC50 (HCC827 [1]): 0.278 µM
IC50 (PC-9 [2]): 5.61 µM
IC50 (NCI-H3255): 3 µM
IC50 (NCI-H1975): > 10 µM
Activity (L02): Non-Toxic
Activity [3]: inactive
Activity [4]: Active
Activity [5]: Active
Activity [6]: inactive
Activity [7]: Active
Activity [8]: inactive
Activity [9]: Active
Activity [10]: Active
Activity [11]: inactive
Activity [12]: inactive
Activity [13]: Active
Activity [14]: Active
Activity [15]: Active
inhibition (PC-9 [16]): Dose-Dependent Effect
inhibition (HCC827 [17]): Dose-Dependent Effect
remaining at 2.667 h, 1 mg/ml [18]: 90%
half-life [19]: 18.4 min
Activity [20]: Non-Toxic
inhibition in vivo at 10 mg/kg (PC-9 [21]): 51.6%
Activity [22]: Non-Toxic
Activity [23]: Non-Toxic
Activity [24]: Non-Toxic
Activity [25]: Non-Toxic
Activity [26]: 65.504 U/L
Activity [27]: 229.632 U/L
Activity [28]: 1.682 U/L
Activity [29]: 17.83 µmol/L
Activity [30]: 6.434 µmol/L
Activity [31]: 185.73 U/L
Activity [32]: 2.53 µmol/L
Activity [33]: 19.63 mmol/L
Activity [34]: 44.454 µmol/L
Activity [35]: 16.068 µmol/L
Activity [36]: 3.062 µmol/L
Activity [37]: 19.029 mmol/L
